Data on one compound can be found in US20250281509A1, “SEQUENTIAL HORMONE THERAPY TO IMPROVE SURVIVAL AND ENHANCE RESPONSE TO IMMUNE THERAPY IN MEN WITH PROSTATE CANCER” (The Johns Hopkins University, priority 2021, published 2025).

The test system of one assay is autophagy. As to the kind of experiment: Autophagy induction in PCa cell lines. The class given is cell-based, human. Here is the method: (§1) Cell lysates were prepared either in 1× denaturing lysis buffer (Cell Signaling #9803) or non-denaturing lysis buffer (50 mM HEPES pH 7.4, 150 mM NaCl, 5 mM EDTA, 10% glycerol, 1% Nonidet P-40, and supplemented with phosphatase and protease inhibitors). For denaturing gels, lysates were mixed with Laemmli buffer containing β-mercaptoethanol, boiled for 5 mins and stored at −80° C. until use. Native lysates were mixed with native loading buffer (BioRad), and semi-native lysates were mixed with Laemmli buffer without beta-mercaptoethanol and stored at −80° C. without boiling. Native gels were resolved as described previously, Robitaille et al., 2016; denaturing and semi-native gels were resolved on 4-15% precast polyacrylamide gels (BioRad) followed by transfer to PVDF membrane. Membranes were blocked in 5% nonfat milk in wash buffer (Tris-buffered saline+0.1% Tween-20). After blocking, immunoblotting was performed with primary antibodies overnight at 4° C., followed by incubation with HRP-conjugated secondary antibodies for 1 h at room temperature. Blots were analyzed using the chemiluminescence method. Blots were developed using ECL Western blot detection reagent (GE Healthcare) for highly expressed proteins and Super Signal West Femto (Thermo Fisher) reagent for low expression proteins. Each experiment was repeated at least two to three times.
Cells were plated on 60-mm dishes to obtain 80% confluence on the next day. Cells were transfected with tandem mRFP-GFP fluorescent-tagged LC3 (ptfLC3) (Addgene #21074). 24 h post-transfection, cells were trypsinized and plated on sterile glass-bottom dishes at a 40-50% confluency and treated with androgens. Autophagosomes are labelled as green and red dual positive punctas and autolysosomes appear as red puncta as the green puncta is pH sensitive and quenched by the acidic lysosomal pH. Cells were then imaged using a live cell Zeiss LSM780-FCS Single-point, laser scanning confocal microscope. Images were processed using the ImageJ software. Cells with predominantly yellow RFP/GFP (autophagosome) or red RFP (autolysosome) punctae were counted and analyzed from at least twenty fields. Each experiment had images from at least five random fields and repeated three times.

A further assay deals with ferritin. As to the kind of experiment: Ferritin level by western blot. The class given is cell-based, human. The conditions noted are these: LNCaP cells, supraphysiological levels. Here is the method:
as §1
(A western blot detects proteins with antibodies after separation by electrophoresis.)

The test system of the next assay is STING. As to the kind of experiment: STING dimerization assay (native western blot). As to conditions: LNCaP vs LAPC4 cells. The class given is cell-based, human. On the procedure:
as §1

Another assay has as its system NIK, p52, RELB. Description: Immunoblotting for non-canonical NF-kappaB pathway. It is filed as cell-based, human.
The next assay concerns CXCL10. Description: CXCL10 transcript and protein. The class given is cell-based, human. As to conditions: LNCaP vs LAPC4 cells. On the procedure:
Total RNA was extracted from cells using Trizol reagent (Thermo Fisher) as per manufacturer's instructions. cDNA was synthesized from RNA by reverse transcription using SuperScript IV reverse (Thermo Fisher). Quantitative PCR was performed on samples mixed with SYBR master mix (BioRad) and gene-specific primers using a real-time thermocycler (BioRad). Data analysis was performed using the ΔΔCt method, and fold change (2^^−ΔΔ^Ct) was calculated after double normalization with the housekeeper gene and respective untreated control. Each PCR reaction was run in triplicates.
Cell lysates were prepared either in 1× denaturing lysis buffer (Cell Signaling #9803) or non-denaturing lysis buffer (50 mM HEPES pH 7.4, 150 mM NaCl, 5 mM EDTA, 10% glycerol, 1% Nonidet P-40, and supplemented with phosphatase and protease inhibitors). For denaturing gels, lysates were mixed with Laemmli buffer containing β-mercaptoethanol, boiled for 5 mins and stored at −80° C. until use. […] Blots were analyzed using the chemiluminescence method. […]
The concentration of 17 chemokines, cytokines, and growth factors in culture supernatants of control or R1881 treated LNCaP cells was determined using the Bioplex Pro Human Cytokine 17-plex assay system (Bio-Rad) according to manufacturer's protocol. […] Data was collected on the Bio-Rad BioPlex 200 instrument and analyzed using the Bio-Plex Manager (Bio-Rad Laboratory).

The next assay concerns LNCaP cells. The conditions noted are these: androgen-deprived LNCaP cells, high-dose DHT.
The subject of another assay is LAPC4 cells. As to conditions: androgen-deprived LAPC4 cells, high levels of DHT.

Description for NIK, p52, RELB: For denaturing gels, lysates were mixed with Laemmli buffer containing β-mercaptoethanol, boiled for 5 mins and stored at −80° C. until use. Native lysates were mixed with native loading buffer (BioRad), and semi-native lysates were mixed with Laemmli buffer without beta-mercaptoethanol and stored at −80° C. without boiling. […] Membranes were blocked in 5% nonfat milk in wash buffer (Tris-buffered saline+0.1% Tween-20). After blocking, immunoblotting was performed with primary antibodies overnight at 4° C., followed by incubation with HRP-conjugated secondary antibodies for 1 h at room temperature. Blots were analyzed using the chemiluminescence method. Blots were developed using ECL Western blot detection reagent (GE Healthcare) for highly expressed proteins and Super Signal West Femto (Thermo Fisher) reagent for low expression proteins. Each experiment was repeated at least two to three times.

Regarding `C[C@]12CCC(=O)C[C@@H]1CC[C@@H]1[C@@H]2CC[C@]2(C)[C@@H](O)CC[C@@H]12` [DHT, dihydrotestosterone], the autophagy result with autophagy (LAPC4 cells) is reported as “but not in LAPC4 cells”; in the assay with autophagy (LNCaP cells) it was “robustly increased autophagy”. In addition, the ferritin levels result with ferritin is given as “decreased ferritin levels”. The “STING and MAVS activation” value in the assay with STING is “activated STING and MAVS preferentially in LNCaP cells, however, the activation was not as robust as R1881”. The “RelB and NIK stabilization” value with NIK, p52, RELB was “led to stabilization of RelB and NIK”. Besides, in the assay on CXCL10, the CXCL10 induction entry is given as “able to induce CXCL10 (less robustly than R1881) preferentially in LNCaP cells”. Also, in the assay on LNCaP cells, the “double strand break formation (γH2A.x foci)” value is reported as “numerous γH2A.x foci”. Further, the “double strand breaks (γH2A.x foci)” value with LAPC4 cells is recorded as “numerous double strand breaks throughout the nucleus”.
